Assay results as given in patent US4997827A, “Compositions containing 5-α-dihydro-19-norethisterone and derivatives thereof for in vivo inhibition of aromatase” (Medical Foundation of Buffalo, Inc., priority 1989, dated 1991).
Entries after “also recorded” stand apart in the source; their conditions may differ.

How the values were obtained:
rat ovarian aromatase = biological target: T1, rat ovarian aromatase (Rattus norvegicus, UniProt P22443); assay: in vivo effect on rat ovarian aromatase activity (3H-water method); conditions: for in vivo ovarian aromatase inactivation: Example 7, 50 mg/kg body weight/day, regularly cycling BUF/N rats, compared to sesame oil control; for suppression of the ovarian aromatase activity: 50 mg/kg body weight/day s.c. twice daily for four days, 4-day cycling BUF/N rats
T1 construct: from tissue; host or cells: ovaries of BUF/N inbred female rats, 105,000 x g precipitate of the homogenate
T1 sequence (P22443 1-508): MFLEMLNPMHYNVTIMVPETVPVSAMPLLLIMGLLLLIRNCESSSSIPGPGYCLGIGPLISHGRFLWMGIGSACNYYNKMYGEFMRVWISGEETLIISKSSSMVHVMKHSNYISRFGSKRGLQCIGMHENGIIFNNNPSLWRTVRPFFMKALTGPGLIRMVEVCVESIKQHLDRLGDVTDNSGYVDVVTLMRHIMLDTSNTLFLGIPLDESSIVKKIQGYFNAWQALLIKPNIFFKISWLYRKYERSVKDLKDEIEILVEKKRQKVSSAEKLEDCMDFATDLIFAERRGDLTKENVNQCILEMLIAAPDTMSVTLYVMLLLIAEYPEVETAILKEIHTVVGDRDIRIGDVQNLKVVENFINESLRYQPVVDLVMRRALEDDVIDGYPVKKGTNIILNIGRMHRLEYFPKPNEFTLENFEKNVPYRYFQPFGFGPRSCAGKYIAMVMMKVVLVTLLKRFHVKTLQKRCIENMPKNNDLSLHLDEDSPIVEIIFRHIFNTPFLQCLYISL
Procedure: 5α-DHNET (30 mg/ml sesame oil suspension) was injected s.c. twice daily for four days at a dose of 50 mg/kg body weight/day to BUF/N inbred female rats (50-80 days old) showing regular 4-day estrus cycles starting on the estrus day. The control group received injections of sesame oil in the same manner. Both ovaries were removed 3-4 hours after the final injection. The 105,000×g precipitate fraction of the ovarian homogenate was used for the aromatase assay. Aromatase activity was determined by the ^3 H-water method (F. L. Bellino, S. S. H. Gilani, S. S. Eng, Y. Osawa and W. L. Duax, Biochemistry, 15, 4730-4736 (1976)). The sedimented ovarian enzyme preparation was homogenized in 0.1 M phosphate buffer (pH 7.5) and incubated with [1β-^3 H, 4-^14 C]androstenedione (3.18×10^5 dpm ^3 H, 1.18×10^4 dpm ^14 C, 100.2 ng), NADPH (1 mg) and BSA (5 mg) in 0.1 M phosphate buffer (pH 7.5) in a total volume of 1.5 ml for 30 min at 37° C. Trichloroacetic acid solution (0.2 ml of 10% aqueous solution) was added to stop the enzyme reaction. Activated charcoal was added to the mixture and the spun supernatant was passed through a cotton plugged disposable pipet. The filtrate was counted for simultaneous ^3 H and ^14 C in a liquid scintillation spectrophotometer. The ^3 H-water released from the 1β-^3 H labeled androgen quantitatively corresponds to estrogen formation. The results of the in vivo aromatase suppression assay with 5α-DHNET, 6β-bromoandrostenedione (6β-BRA), and 6α-bromoandrostenedione (6α-BRA) are given in FIGS. 3, 4, and 5, respectively. 5α-DHNET suppressed 67% of the ovarian aromatase, whereas 6β-bromoandrostenedione suppressed 72% and 6α-bromoandrostenedione only an insignificant 10%.
A test of the acetate (C2) and n-butyrate (C4) on the in vivo effect on Ovarian Aromatase Activity was conducted. […] All procedures are the same as described in the above examples. […] The slightly better results obtained with the N-butyrate may be due to its higher solubility in sesame oil, indicating a higher retention in the body.

[1] = test system: human placental aromatase; conditions: in vitro; for 5α-DHNET a partial inhibition; cited from earlier work
[2] = test system: estrus cycle of BUF/N inbred female rats; assay: effect on the rat estrus cycle; assay type: in vivo; conditions: single s.c. dose 50 mg/kg body weight on proestrus day; 50 mg/kg
Procedure: BUF/N inbred female rats (50-80 days old) showing regular 4-day estrus cycles were selected by a daily vaginal smear test. A fine powder of the steroid sample was suspended in sesame oil (30 mg/ml) and injected subcutaneously on the proestrus day at a single dose of 50 mg/kg body weight. Vaginal smears were examined daily until normal estrus returned for at least three cycles. The results from the single injection of 5α-DHNET are given in FIG. 1 and those for 6β-bromoandrostenedione are given in FIG. 2 for comparison.

Row | Structure (SMILES) | in vivo ovarian aromatase inactivation (rat ovarian aromatase) [%] | suppression of the ovarian aromatase activity (rat ovarian aromatase) [%] | concentration for inhibition of human placental aromatase in vitro [1] [µM] | effect on the estrus cycle [2]
1 | C#C[C@]1(OC(C)=O)CC[C@H]2[C@@H]3CC[C@H]4CC(=O)CC[C@@H]4[C@H]3CC[C@@]21C [5α-DHNET Ac, 5α-DHNET acetate] | 68.2 |  |  | 
2 | C#C[C@]1(OC(=O)CCC)CC[C@H]2[C@@H]3CC[C@H]4CC(=O)CC[C@@H]4[C@H]3CC[C@@]21C [5α-DHNET But, 5α-DHNET butyrate] | 79.4 |  |  | 
3 | C[C@]12CCC(=O)C=C1[C@@H](Br)C[C@@H]1[C@@H]2CC[C@]2(C)C(=O)CC[C@@H]12 [6α-bromoandrostenedione, reference compound] |  | 10 | 0.0082 | 
4 | C[C@]12CCC(=O)C=C1[C@H](Br)C[C@@H]1[C@@H]2CC[C@]2(C)C(=O)CC[C@@H]12 [6β-bromoandrostenedione, reference compound] |  | 72 | 0.056 | no effect on the cycle; also recorded: failed to affect the estrus cycle
